≈ marks a conversion by molar mass, not a printed value.
Tests used:
lymphocytes = assay: In vitro mixed lymphocyte reaction (MLR) assay, two-way lymphocyte proliferation; type: cell-based; conditions: Lymphocyte, 3H-thymidine incorporation
Excerpt: The MLR assay is useful for identifying rapamycin metabolites with biological (immunosupressive) activity and to quantify this activity relative to the immunosuppressive activity of the parent rapamycin molecule.
An example of a two-way lymphocyte proliferation assay procedure useful for this purpose is as follows:
1. Collect blood from two individuals (20 mls each) and isolate lymphocytes using Ficoll-Paque™ (polysucrose and sodium diatrizoate) (Pharmacia Biotech).
2. Count lymphocytes at 1:10 dilution in 2% acetic acid (v/v).
3. Prepare 10 mls of each lymphocyte populations (A+B) at 1×10^6 cells/ml in DMEM/20% FCS (v/v).
4. Set up a 96 well sterile tissue culture plate, flat bottom (Sarstedt, cat # 83.1835). To each well add:
5. Aliquot 100 μl per well lymphocyte population A
6. Aliquot 100 μl per well lymphocyte population B
7. Aliquot 20 μl per well of drug (rapamycin and rapamycin metabolites M1-5) serially diluted 0 to 1000 μg/L in triplicate in DMEM with no supplements.
8. […]
10. […] Wash cells 3× with 1.0-ml sterile distilled water.
Note: All procedures are done using sterile techniques in a biological flow hood.
11. Place filters in Scintilation vials and add 1.5 mls of ScintiSafe Plus™ 50% scintillation fluid (Fisher, cat #SX-25-5).
12. Measure the amount of radioactivity incorporated in the lymphocytes using a beta counter (Micromedic System Inc., TAURUS™ Automatic Liquid Scintillation Counter) for 1.0 minute.
13. Calculate averages and standard deviations for each drug and express results as: [formula]

[1] = Relative concentrations of Rapa metabolites in pooled whole blood patient samples (LC/MS); type: in vivo; conditions: Rapa = 1
Excerpt: No individual metabolite is found at a concentration greater than 20% of the Rapa parent level.

[2] = [14C]-rapamycin, healthy male volunteers; cited from earlier work

Relative Concentration in whole blood [1]: 1
Compound: CO[C@H]1C[C@@H]2CC[C@@H](C)[C@@](O)(O2)C(=O)C(=O)N2CCCC[C@H]2C(=O)O[C@H]([C@H](C)C[C@@H]2CC[C@@H](O)[C@H](OC)C2)CC(=O)[C@H](C)/C=C(\C)[C@@H](O)[C@@H](OC)C(=O)[C@H](C)C[C@H](C)/C=C/C=C/C=C/1C [Rapa, Rapamycin]
IC50 (lymphocytes): 0.48 ng/mL (≈ 0.525 nM) | share of the total radioactivity in blood [2]: approximately 35%

Source: patent US6709873B1, “Method for production of antibodies to specific sites of rapamycin” (Isodiagnostika Inc., priority 1997, dated 2004)
